Data taken from article PMC10044445, “Tuning the Anthranilamide Peptidomimetic Design to Selectively Target Planktonic Bacteria and Biofilm” (Antibiotics, 2023).
≈ marks a conversion by molar mass, not a printed value. Where two headings read alike, the source gives them in different places.

Experiments:
S. aureus = assay: Minimum inhibitory concentration, broth microdilution (CLSI); format: cell-based, Staphylococcus aureus
Experimental: (§1) The antimicrobial activity of the compounds was evaluated by a broth microdilution assay using the procedure described by CLSI. Briefly, bacteria were grown to mid-log phase in Muller Hinton broth (MHB) with shaking at 120 rpm and incubated at 37 °C for 12–16 h. Following incubation, bacteria were washed three times in PBS pH 7.4 at 3500 g for 10 min. After washing, bacteria were diluted with fresh MHB. The turbidity of the bacterial suspensions was adjusted so that OD660nm was 0.1, which gave 1 × 10^8 CFU/mL, and then further diluted to achieve 5 × 10^5 CFU/mL as a final bacterial concentration. Each compound was diluted (250–3.9 µM) through two-fold dilution. Wells in microtiter plates were loaded with 100 µL of inoculum containing 5 × 10^5 CFU/mL bacteria. Wells without any compound and containing only bacteria were used as negative controls (i.e., no inhibition of growth). Wells with media only were set as blank. The microtiter plate was wrapped with paraffin to prevent evaporation and incubated with shaking at 120 rpm and 37 °C for 18–24 h. After incubation, spectrophotometric readings were taken. The well without any bacterial growth and showing zero spectrophotometric reading was regarded as the MIC of the compounds.

E. coli = assay: as above; format: cell-based, Escherichia coli
Experimental: as §1

MRC-5 human fibroblasts = assay: Toxicity assay, Alamar Blue; format: cell-based; details: for IC50: MRC5, MRC-5 human fibroblasts, 72 h drug incubation, Alamar Blue
Experimental: Normal human lung fibroblasts MRC-5 were cultured in minimal essential medium (MEM, Invitrogen) supplemented with 10% foetal calf serum (FCS), 1% L-glutamine–penicillin–streptomycin, 2% sodium bicarbonate, 1% non-essential amino acids (NEAA), and 1% sodium pyruvate. The cell line was maintained at 37 °C in 5% CO2 as an adherent monolayer and was passaged upon reaching confluence by standard cell culture techniques. MRC-5 cells were seeded at 2 × 10^4 cells per well in 96-well plates to ensure full confluence (quiescence). Cells were treated for 24 h after seeding with 0.1 to 1000 μM of compounds. After 72 h of drug incubation, the treated media was replaced with fresh media containing 10% Alamar Blue and the cells were incubated for another 6 h. The metabolic activity was detected by spectrophotometric analysis by assessing the absorbance of Alamar blue as previously described by Pasquier et al. Cell proliferation was determined and expressed as a percentage of untreated control cells. The determination of IC50 values was performed using GraphPad Prism 6 (San Diego, CA, USA). Each experiment was performed in triplicate and was repeated in three independent experiments.

[1] = Staphylococcus aureus, broth microdilution in MHB, 18–24 h
[2] = Escherichia coli, broth microdilution in MHB, 18–24 h
[3] = Staphylococcus aureus, Table 2, lysine derivative versus parent, read-out: MIC S. aureus
[4] = Escherichia coli, Table 2, lysine derivative versus parent, read-out: MIC E. coli
[5] = broth microdilution in MHB, 18–24 h

Work on `NCCNC(=O)[C@H](Cc1c[nH]c2ccccc12)NC(=O)c1cc(Br)ccc1NC(=O)Cc1cccc2ccccc12` [Compound 12b, (S)-N-(1-((2-aminoethyl)amino)-3-(1H-indol-3-yl)-1-oxopropan-2-yl)-5-bromo-2-(2-(naphthalen-1-yl)acetamido)benzamide] yielded an MIC90 (S. aureus; [1]) of 62.5 µM (≈ 38.3 µg/mL), an MIC (S. aureus; Staphylococcus aureus, broth microdilution in MHB, 18–24 h, read-out: MIC90 S. aureus) of 15.6 µM (≈ 9.56 µg/mL) and an MIC90 (E. coli; [2]) greater than 125 µM.
In the case of `COc1ccc2ccccc2c1C(=O)Nc1ccc(Br)cc1C(=O)N[C@@H](Cc1c[nH]c2ccccc12)C(=O)NCCN` [Compound 12c, (S)-N-(2-((1-((2-aminoethyl)amino)-3-(1H-indol-3-yl)-1-oxopropan-2-yl)carbamoyl)-4-bromophenyl)-2-methoxy-1-naphthamide], the MIC90 (S. aureus; [1]) is reported as 15.6 µM (≈ 9.81 µg/mL) and the MIC90 (E. coli; [2]) is reported as greater than 125 µM.
For `COc1cc2ccccc2cc1C(=O)Nc1ccc(Br)cc1C(=O)N[C@@H](Cc1c[nH]c2ccccc12)C(=O)NCCN` [Compound 12d, (S)-N-(2-((1-((2-aminoethyl)amino)-3-(1H-indol-3-yl)-1-oxopropan-2-yl)carbamoyl)-4-bromophenyl)-3-methoxy-2-naphthamide], the MIC90 (S. aureus; [1]) was 7.8 µM (≈ 4.9 µg/mL), the MIC90 (E. coli; [2]) was greater than 125 µM and the IC50 (MRC-5 human fibroblasts) was 18.7 µM.
`NCCNC(=O)[C@H](Cc1c[nH]c2ccccc12)NC(=O)c1cc(Br)ccc1NC(=O)c1ccc2ccccc2n1` [Compound 12e, (S)-N-(2-((1-((2-aminoethyl)amino)-3-(1H-indol-3-yl)-1-oxopropan-2-yl)carbamoyl)-4-bromophenyl)quinoline-2-carboxamide] showed an MIC90 (S. aureus; [1]) of 15.6 µM (≈ 9.35 µg/mL) and an MIC90 (E. coli; [2]) greater than 125 µM.
`NCCNC(=O)[C@H](Cc1c[nH]c2ccccc12)NC(=O)c1cc(Br)ccc1NC(=O)c1cc2ccccc2[nH]1` [Compound 12f, (S)-N-(2-((1-((2-aminoethyl)amino)-3-(1H-indol-3-yl)-1-oxopropan-2-yl)carbamoyl)-4-bromophenyl)-1H-indole-2-carboxamide] gave an MIC90 (S. aureus; [1]) of 125 µM (≈ 73.4 µg/mL) and an MIC90 (E. coli; [2]) greater than 125 µM.
`NCCNC(=O)[C@H](Cc1c[nH]c2ccccc12)NC(=O)c1cc(Br)ccc1NC(=O)c1cccs1` [Compound 12g, (S)-N-(2-((1-((2-aminoethyl)amino)-3-(1H-indol-3-yl)-1-oxopropan-2-yl)carbamoyl)-4-bromophenyl)thiophene-2-carboxamide] showed an MIC90 (S. aureus; [1]) of 125 µM (≈ 69.3 µg/mL) and an MIC90 (E. coli; [2]) greater than 125 µM.
With `NCCNC(=O)[C@H](Cc1c[nH]c2ccccc12)NC(=O)c1cc(Br)ccc1NC(=O)c1ccsc1` [Compound 12h, (S)-N-(2-((1-((2-aminoethyl)amino)-3-(1H-indol-3-yl)-1-oxopropan-2-yl)carbamoyl)-4-bromophenyl)thiophene-3-carboxamide] the MIC90 (S. aureus; [1]) was 125 µM (≈ 69.3 µg/mL) and the MIC90 (E. coli; [2]) was greater than 125 µM.
`NCCNC(=O)[C@H](Cc1c[nH]c2ccccc12)NC(=O)c1cc(Br)ccc1NC(=O)c1ccccc1-c1ccccc1` [Compound 12i, (S)-N-(2-((1-((2-aminoethyl)amino)-3-(1H-indol-3-yl)-1-oxopropan-2-yl)carbamoyl)-4-bromophenyl)-[1,1′-biphenyl]-2-carboxamide] was tested, and the MIC90 (S. aureus; [1]) was 15.6 µM (≈ 9.74 µg/mL), the MIC90 (E. coli; [2]) was greater than 125 µM and the IC50 (MRC-5 human fibroblasts) was 22.9 µM.
With `NCCNC(=O)[C@H](Cc1c[nH]c2ccccc12)NC(=O)c1cc(Br)ccc1NC(=O)c1cccc(-c2ccccc2)c1` [Compound 12j, (S)-N-(2-((1-((2-aminoethyl)amino)-3-(1H-indol-3-yl)-1-oxopropan-2-yl)carbamoyl)-4-bromophenyl)-[1,1′-biphenyl]-3-carboxamide] the MIC (S. aureus; [3]) was 3.9 µM (≈ 2.44 µg/mL), the MIC90 (S. aureus; [1]) was 3.9 µM (≈ 2.44 µg/mL) and the MIC (E. coli; [4]) was greater than 125 µM. It also gave an MIC90 (E. coli; [2]) greater than 125 µM, an MIC90 (E. coli; [5]) greater than 125 µM and an IC50 (MRC-5 human fibroblasts) of 13.5 µM.
For `NCCNC(=O)[C@H](Cc1c[nH]c2ccccc12)NC(=O)c1cc(Br)ccc1NC(=O)c1ccc(-c2ccccc2)cc1` [Compound 12k, (S)-N-(2-((1-((2-aminoethyl)amino)-3-(1H-indol-3-yl)-1-oxopropan-2-yl)carbamoyl)-4-bromophenyl)-[1,1′-biphenyl]-4-carboxamide], the MIC (S. aureus; [3]) was 7.8 µM (≈ 4.87 µg/mL), the MIC90 (S. aureus; [1]) was 7.8 µM (≈ 4.87 µg/mL) and the MIC (E. coli; [4]) was greater than 125 µM. For the same molecule, the MIC90 (E. coli; [2]) was greater than 125 µM and the IC50 (MRC-5 human fibroblasts) was 12.7 µM.
Molecule `NCCCNC(=O)[C@H](Cc1c[nH]c2ccccc12)NC(=O)c1cc(Br)ccc1NC(=O)c1ccc2ccccc2c1` [Compound 13a, (S)-N-(2-((1-((3-aminopropyl)amino)-3-(1H-indol-3-yl)-1-oxopropan-2-yl)carbamoyl)-4-bromophenyl)-2-naphthamide] has an MIC90 (S. aureus; [1]) of 15.6 µM (≈ 9.56 µg/mL) and an MIC90 (E. coli; [2]) greater than 125 µM.
`NCCCNC(=O)[C@H](Cc1c[nH]c2ccccc12)NC(=O)c1cc(Br)ccc1NC(=O)Cc1cccc2ccccc12` [Compound 13b, (S)-N-(1-((3-aminopropyl)amino)-3-(1H-indol-3-yl)-1-oxopropan-2-yl)-5-bromo-2-(2-(naphthalen-1-yl)acetamido)benzamide] showed an MIC90 (S. aureus; [1]) of 62.5 µM (≈ 39.2 µg/mL) and an MIC90 (E. coli; [2]) greater than 125 µM.
`COc1ccc2ccccc2c1C(=O)Nc1ccc(Br)cc1C(=O)N[C@@H](Cc1c[nH]c2ccccc12)C(=O)NCCCN` [Compound 13c, (S)-N-(2-((1-((3-aminopropyl)amino)-3-(1H-indol-3-yl)-1-oxopropan-2-yl)carbamoyl)-4-bromophenyl)-2-methoxy-1-naphthamide] showed an MIC90 (S. aureus; [1]) of 15.6 µM (≈ 10 µg/mL), an MIC90 (E. coli; [2]) of 62.5 µM (≈ 40.2 µg/mL) and an IC50 (MRC-5 human fibroblasts) of 20.5 µM.
`NCCCNC(=O)[C@H](Cc1c[nH]c2ccccc12)NC(=O)c1cc(Br)ccc1NC(=O)c1ccc2ccccc2n1` [Compound 13e, (S)-N-(2-((1-((3-aminopropyl)amino)-3-(1H-indol-3-yl)-1-oxopropan-2-yl)carbamoyl)-4-bromophenyl)quinoline-2-carboxamide] was tested, and the MIC90 (S. aureus; [1]) was greater than 125 µM and the MIC90 (E. coli; [2]) was greater than 125 µM.
`CC(C)(C)c1ccc(-c2ccc(N)c(C(=O)N[C@@H](Cc3c[nH]c4ccccc34)C(=O)NCCN)c2)cc1` [Compound 16a, (S)-4-amino-N-(1-((2-aminoethyl)amino)-3-(1H-indol-3-yl)-1-oxopropan-2-yl)-4′-(tert-butyl)-[1,1′-biphenyl]-3-carboxamide] gave an MIC90 (S. aureus; [1]) of 7.8 µM (≈ 3.88 µg/mL), an MIC90 (E. coli; [2]) greater than 125 µM and an IC50 (MRC-5 human fibroblasts) of 34.1 µM.
Work on `NCCNC(=O)[C@H](Cc1c[nH]c2ccccc12)NC(=O)c1cc(-c2ccc(F)cc2)ccc1N` [Compound 16c, (S)-4-amino-N-(1-((2-aminoethyl)amino)-3-(1H-indol-3-yl)-1-oxopropan-2-yl)-4′-fluoro-[1,1′-biphenyl]-3-carboxamide] yielded an MIC90 (S. aureus; [1]) of 31.2 µM (≈ 14.3 µg/mL), an MIC90 (E. coli; [2]) greater than 125 µM and an IC50 (MRC-5 human fibroblasts) of 34 µM.
`NCCNC(=O)[C@H](Cc1c[nH]c2ccccc12)NC(=O)c1cc(-c2ccc(C(F)(F)F)cc2)ccc1N` [Compound 16d, (S)-4-amino-N-(1-((2-aminoethyl)amino)-3-(1H-indol-3-yl)-1-oxopropan-2-yl)-4′-(trifluoromethyl)-[1,1′-biphenyl]-3-carboxamide] was tested, and the MIC90 (S. aureus; [1]) was 15.6 µM (≈ 7.95 µg/mL) and the MIC90 (E. coli; [2]) was greater than 125 µM.
In the case of `NCCNC(=O)[C@H](Cc1c[nH]c2ccccc12)NC(=O)c1cc(Br)ccc1N` [Compound 17, (S)-2-amino-N-(1-((2-aminoethyl)amino)-3-(1H-indol-3-yl)-1-oxopropan-2-yl)-5-bromobenzamide], the MIC90 (S. aureus; [1]) is reported as greater than 125 µM and the MIC90 (E. coli; [2]) is reported as greater than 125 µM.
`NCCCC[C@H](N)C(=O)NCCNC(=O)[C@H](Cc1c[nH]c2ccccc12)NC(=O)c1cc(Br)ccc1NC(=O)c1ccc(-c2ccccc2)cc1` [Compound 19c, N-(4-bromo-2-(((S)-1-((2-((S)-2,6-diaminohexanamido)ethyl)amino)-3-(1H-indol-3-yl)-1-oxopropan-2-yl)carbamoyl)phenyl)-[1,1′-biphenyl]-4-carboxamide] showed an MIC (S. aureus; [3]) of 15.6 µM (≈ 11.7 µg/mL), an MIC90 (S. aureus; [1]) of 15.6 µM (≈ 11.7 µg/mL) and an MIC (E. coli; [4]) of 62.5 µM (≈ 47 µg/mL). The MIC90 (E. coli; [2]) was 62.5 µM (≈ 47 µg/mL), the MIC (E. coli; Escherichia coli, broth microdilution in MHB, 18–24 h, read-out: MIC90 E. coli) was 15.6 µM (≈ 11.7 µg/mL) and the “improvement in antibacterial activity against E. coli compared to the parent compound” value (E. coli; versus parent 12a, 12j) was greater than 16 fold. For the same molecule, the IC50 (MRC-5 human fibroblasts) was 150 µM and the “toxicity to mammalian cells (in words)” value (MRC-5 human fibroblasts; at 31.2 µM) was “non-toxic”.
Work on Colistin [reference compound] yielded an MIC90 (S. aureus; [5]) of 125 µM and an MIC90 (E. coli; [5]) of 1 µM.
